The subject of this data set is HepG2 cells. As to the kind of experiment: Cholesterol metabolism test (cholesterol uptake, NBD cholesterol, flow cytometer). The format is cell-based, Human. Particulars: U-18666A 1.25 μM, sample 0.25% (v/v). As to the method: 1. Cell line: Human liver cells, purchased from ATCC (American Type Culture Collection), cell number: HB-8065, hereinafter referred to as HepG2 cells.
5. Cholesterol Uptake Cell-based Assay Kit: purchased from Cayman; product number: 600440. This cholesterol uptake cell-based assay kit included U-18666A and NBD cholesterol.
1. The HepG2 cells were inoculated into a 6-well culture plate containing 2 mL of cell medium in each well according to a density of 1×10^5 cells per well, and cultured at 37° C. for 24 h. The HepG2 cells were divided into three test groups, i.e., a Mock group, a control group and an experiment group, respectively. Each group underwent trial in triplicate.
2. […]
4. After rinsing, the cells of each group were processed according to the test process provided by the cholesterol uptake cell-based assay kit to obtain a test sample of each group; the parameters of the flow cytometer were set as excitation spectra and emission spectra of FITC, and then a green fluorescence signal of each group was detected by using the flow cytometer.
The relative cholesterol uptake in hepatocytes of all groups was calculated according to the following formula: relative cholesterol uptake in hepatocytes (%)=(green fluorescence signal of each group/green fluorescence signal of the Mock group)×100%.
Background: In flow cytometry, cells or beads pass a laser one at a time.

Consider `CCN(CC)CCO[C@H]1CC[C@@]2(C)C(=CC[C@@H]3[C@@H]2CC[C@]2(C)C(=O)CC[C@@H]32)C1` [U-18666A], for which the “relative cholesterol uptake in hepatocytes” value (HepG2, 20 μg/mL NBD cholesterol, 24-72 h, Mock group = 100%) was found to be 143.5%. Besides, the “relative cholesterol uptake in hepatocytes increased compared with the Mock group” value (HepG2) is “about 43.5%”.
